Species on record: Rattus norvegicus
Experiment: DrugMatrix - Regimen: Daily Repeat
Assay type: toxicity, organism-based, Sprague-Dawley
Set-up: regimen Daily Repeat, gender Male, age 6-8 weeks
Settings: in vivo, po, route oral GAVAGE, vehicle .5 % CMC; for ALANINE AMINOTRANSFERASE / ALBUMIN / ALKALINE PHOSPHATASE / ASPARTATE AMINOTRANSFERASE / BLOOD UREA NITROGEN / CARBON DIOXIDE / CHLORIDE / CHOLESTEROL / CREATINE PHOSPHOKINASE / CREATININE / GLUCOSE / LACTATE DEHYDROGENASE / LIPASE / PHOSPHORUS / POTASSIUM / SODIUM / TOTAL BILIRUBIN / TOTAL PROTEIN / URIC ACID: tissue Plasma; for ABSOLUTE BASOPHIL / ABSOLUTE EOSINOPHIL / ABSOLUTE LYMPHOCYTE / ABSOLUTE MONOCYTE / ABSOLUTE SEGMENTED NEUTROPHIL / BASOPHIL / EOSINOPHIL / ERYTHROCYTE COUNT / HEMATOCRIT / HEMOGLOBIN / LEUKOCYTE COUNT / LYMPHOCYTE / MEAN CORPUSCULAR HEMOGLOBIN / MEAN CORPUSCULAR HEMOGLOBIN CONCENTRATION / MEAN CORPUSCULAR VOLUME / MONOCYTE / NEUTROPHIL / NUCLEATED RED BLOOD CELLS / PLATELET COUNT: tissue Blood
[1] = 88 mg/kg, 72 h, dose level Low, time 3 day
[2] = 88 mg/kg, 120 h, dose level Low, time 5 day
[3] = 2000 mg/kg, 72 h, dose level High, time 3 day

CC(C)[C@H](N)C(=O)OCCOCn1cnc2c(=O)[nH]c(N)nc21 [VALACYCLOVIR]
ALANINE AMINOTRANSFERASE [1]: 55 u/L | ALBUMIN [1]: 4.33 G/DL | ALKALINE PHOSPHATASE [1]: 415.33 u/L | ASPARTATE AMINOTRANSFERASE [1]: 100.67 u/L | BLOOD UREA NITROGEN [1]: 14.67 mg/dL | CARBON DIOXIDE [1]: 27 mmol/L | CHLORIDE [1]: 101 MEQ/L | CHOLESTEROL [1]: 77 mg/dL | CREATINE PHOSPHOKINASE [1]: 717.67 u/L | CREATININE [1]: 0.2 mg/dL | GLUCOSE [1]: 147.33 mg/dL | LACTATE DEHYDROGENASE [1]: 667.67 u/L | LIPASE [1]: 10.67 u/L | PHOSPHORUS [1]: 12.5 mg/dL | POTASSIUM [1]: 6.48 MEQ/L | SODIUM [1]: 144.3 MEQ/L | TOTAL BILIRUBIN [1]: 0.2 mg/dL | TOTAL PROTEIN [1]: 6.23 G/DL | URIC ACID [1]: 1.4 mg/dL | ABSOLUTE BASOPHIL [2]: 0 CELLS/uL | ABSOLUTE EOSINOPHIL [2]: 94 CELLS/uL | ABSOLUTE LYMPHOCYTE [2]: 9072.33 CELLS/uL | ABSOLUTE MONOCYTE [2]: 117.33 CELLS/uL | ABSOLUTE SEGMENTED NEUTROPHIL [2]: 1283 CELLS/uL | BASOPHIL [2]: 0% | EOSINOPHIL [2]: 0.67% | ERYTHROCYTE COUNT [2]: 5.42 x10E6/uL | HEMATOCRIT [2]: 33.93% | HEMOGLOBIN [2]: 13.17 G/DL | LEUKOCYTE COUNT [2]: 10.57 x10E3/uL | LYMPHOCYTE [2]: 86.33% | MEAN CORPUSCULAR HEMOGLOBIN [2]: 24.3 pg | MEAN CORPUSCULAR HEMOGLOBIN CONCENTRATION [2]: 38.83 G/DL | MEAN CORPUSCULAR VOLUME [2]: 62.57 fL | MONOCYTE [2]: 1.33% | NEUTROPHIL [2]: 11.67% | NUCLEATED RED BLOOD CELLS [2]: 0 /100WBC | PLATELET COUNT [2]: 1317.67 x10E3/uL | ALANINE AMINOTRANSFERASE [2]: 58.33 u/L | ALBUMIN [2]: 4.43 G/DL | ALKALINE PHOSPHATASE [2]: 393 u/L | ASPARTATE AMINOTRANSFERASE [2]: 91 u/L | BLOOD UREA NITROGEN [2]: 18 mg/dL | CARBON DIOXIDE [2]: 28.33 mmol/L | CHLORIDE [2]: 103.33 MEQ/L | CHOLESTEROL [2]: 75.33 mg/dL | CREATINE PHOSPHOKINASE [2]: 215.67 u/L | CREATININE [2]: 0.21 mg/dL | GLUCOSE [2]: 137.33 mg/dL | LACTATE DEHYDROGENASE [2]: 175.67 u/L | LIPASE [2]: 9.33 u/L | PHOSPHORUS [2]: 13.03 mg/dL | POTASSIUM [2]: 7.1 MEQ/L | SODIUM [2]: 147.83 MEQ/L | TOTAL BILIRUBIN [2]: 0.23 mg/dL | TOTAL PROTEIN [2]: 6.33 G/DL | URIC ACID [2]: 1.57 mg/dL | ABSOLUTE BASOPHIL [3]: 0 CELLS/uL | ABSOLUTE EOSINOPHIL [3]: 83 CELLS/uL | ABSOLUTE LYMPHOCYTE [3]: 8794.67 CELLS/uL | ABSOLUTE MONOCYTE [3]: 95 CELLS/uL | ABSOLUTE SEGMENTED NEUTROPHIL [3]: 994 CELLS/uL | BASOPHIL [3]: 0% | EOSINOPHIL [3]: 1% | ERYTHROCYTE COUNT [3]: 4.99 x10E6/uL | HEMATOCRIT [3]: 31.53% | HEMOGLOBIN [3]: 12.63 G/DL | LEUKOCYTE COUNT [3]: 9.97 x10E3/uL | LYMPHOCYTE [3]: 88% | MEAN CORPUSCULAR HEMOGLOBIN [3]: 25.3 pg | MEAN CORPUSCULAR HEMOGLOBIN CONCENTRATION [3]: 40.1 G/DL | MEAN CORPUSCULAR VOLUME [3]: 63.07 fL | MONOCYTE [3]: 1% | NEUTROPHIL [3]: 10% | NUCLEATED RED BLOOD CELLS [3]: 0 /100WBC | PLATELET COUNT [3]: 1175 x10E3/uL | ALANINE AMINOTRANSFERASE [3]: 43.33 u/L | ALBUMIN [3]: 4 G/DL | ALKALINE PHOSPHATASE [3]: 329.67 u/L | ASPARTATE AMINOTRANSFERASE [3]: 81.67 u/L | BLOOD UREA NITROGEN [3]: 79.33 mg/dL | CARBON DIOXIDE [3]: 22.67 mmol/L | CHLORIDE [3]: 101 MEQ/L | CHOLESTEROL [3]: 118.67 mg/dL | CREATINE PHOSPHOKINASE [3]: 274.33 u/L | CREATININE [3]: 1.22 mg/dL | GLUCOSE [3]: 158.33 mg/dL | LACTATE DEHYDROGENASE [3]: 182 u/L | LIPASE [3]: 10.67 u/L | PHOSPHORUS [3]: 10.07 mg/dL | POTASSIUM [3]: 5.9 MEQ/L | SODIUM [3]: 143.87 MEQ/L | TOTAL BILIRUBIN [3]: 0.23 mg/dL | TOTAL PROTEIN [3]: 6.3 G/DL | URIC ACID [3]: 1.2 mg/dL
